The test system of the experiment is P388. Kind of experiment: Cytotoxicity against mouse P388 cells. The experiment is classed as functional, cell-based.

Non-standard residues stand in square brackets, D forms with d. Residues, ends and D or L forms follow the SMILES beside them. *: point of attachment. NMeI = CC[C@H](C)[C@H](NC)C(=O)O; NMeV = CN[C@H](C(=O)O)C(C)C; X2 = C[S+]([O-])/C=C/C(=O)*; NMeA = CN[C@@H](C)C(=O)O; X1 = O=C(/C=C/c1ccccc1)*

The IC50 is the concentration at which inhibition is half-maximal. Lower therefore signals greater potency in that assay. In turn, `CC[C@H](C)[C@@H](C(=O)NC)N(C)C(=O)[C@@H](NC(=O)[C@H](C(C)C)N(C)C(=O)[C@H]([C@@H](C)CC)N(C)C(=O)[C@H](C)N(C)C(=O)/C=C/c1ccccc1)C(C)C` [PTERULAMIDE IV] (X1-[NMeA][NMeI][NMeV]V[NMeI]-NHMe) yielded an IC50 of 1.33 µM.

As to `CC[C@H](C)[C@@H](C(=O)NC)N(C)C(=O)[C@@H](NC(=O)[C@H](C(C)C)N(C)C(=O)[C@H]([C@@H](C)CC)N(C)C(=O)[C@H](C)N(C)C(=O)/C=C/[S+](C)[O-])C(C)C` (some centres not stated) [PTERULAMIDE I] (X2-[NMeA][NMeI][NMeV]V[NMeI]-NHMe), the IC50 worked out at 0.79 µM.

Values taken from ChEMBL document CHEMBL1158071, “Pterulamides I-VI, linear peptides from a Malaysian Pterula sp” (J Nat Prod, 2006).
